Data: US8519128B2, “Pyripyropene derivatives having an ACAT2-inhibiting activity” (The Kitasato Institute, priority 2007, dated 2013)
Like-named read-outs stand apart in the source and are kept apart here.

Biological target: T1, ACAT 2 (Mus musculus, UniProt O88908)
T1 construct: The source of ACAT 2 enzyme used was a membrane fraction derived from mouse liver microsome; from tissue; host or cells: mouse liver (microsome fraction)
T1 sequence (O88908 1-525): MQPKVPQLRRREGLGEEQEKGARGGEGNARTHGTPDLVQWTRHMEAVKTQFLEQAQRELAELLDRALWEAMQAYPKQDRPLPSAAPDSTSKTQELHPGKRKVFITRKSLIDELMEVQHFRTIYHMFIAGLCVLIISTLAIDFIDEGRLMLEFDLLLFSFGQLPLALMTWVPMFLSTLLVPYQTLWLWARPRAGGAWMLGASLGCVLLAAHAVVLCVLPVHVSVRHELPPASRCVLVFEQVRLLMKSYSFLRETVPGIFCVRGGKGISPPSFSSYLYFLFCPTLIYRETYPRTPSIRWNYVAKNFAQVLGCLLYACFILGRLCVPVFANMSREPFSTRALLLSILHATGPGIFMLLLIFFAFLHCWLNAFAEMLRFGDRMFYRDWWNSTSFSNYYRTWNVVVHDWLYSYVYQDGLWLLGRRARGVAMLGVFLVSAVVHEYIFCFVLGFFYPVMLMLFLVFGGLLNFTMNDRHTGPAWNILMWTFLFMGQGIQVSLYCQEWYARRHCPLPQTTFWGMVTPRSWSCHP
Test: ACAT-inhibiting activity, mouse liver microsome membrane fraction, [14C]oleoyl-CoA
Assay type: biochemical
Method: The source of ACAT 2 enzyme used was a membrane fraction derived from mouse liver microsome. Mouse liver was homogenized in buffer solution A (50 mM Tris-HCl (pH 7.8), 1 mM ethylenediamine tetraacetate, and 1 mM phenylmethanesulfonyl fluoride) using a homogenizer of the Potter type (Tokyo-RIKO). The homogenate was centrifuged at 12000×g, and the supernatant was ultracentrifuged at 100000×g. The sediment was taken as a microsome fraction, and this fraction was adjusted to have a protein concentration of 5 mg/ml using buffer solution A.
The chloroform layer was evaporated to dryness and was used to spot a thin layer chromatography plate (silica gel plate, Merck, 0.5 mm thickness). Elution for separation was carried out using a solvent of hexane/diethyl ether/acetic acid (70:30:1, v/v).

[1] = mouse liver microsome, 5 minutes at 37° C.

| Molecule | IC50 [1] | Specific activity: (inhibitory activity of test compound)/(inhibitory activity of pyripyropene A) (relative to pyripyropene A) | Specific activity relative to pyripyropene A (numeric) (relative to pyripyropene A) | IC50 (read-out: Inhibitory activity: Concentration required for 50% inhibition of ACAT 2, mouse liver microsome, 5 minutes at 37° C.) | IC50 |
| --- | --- | --- | --- | --- | --- |
| CC(=O)OCC1(C)C2C[C@H](OC(=O)c3cccc(C#N)c3)[C@@]3(C)Oc4cc(-c5cccnc5)oc(=O)c4[C@H](O)C3[C@@]2(C)CC[C@@H]1OC(C)=O (stereo partly drawn) [PRD 016, 7-m-cyanobenzoyl-7-deacetylpyripyropene A] | 10 to 100 nM | +++ (50 > specific activity > 10) |  |  |  |
| C=Cc1cccc(C(=O)O[C@H]2CC3C(C)(COC(C)=O)[C@@H](OC(C)=O)CC[C@]3(C)C3[C@@H](O)c4c(cc(-c5cccnc5)oc4=O)O[C@@]32C)c1 (stereo partly drawn) [PRD 013, 7-m-vinylbenzoyl-7-deacetylpyripyropene A] | < 10 nM | +++ (50 > specific activity > 10) |  |  |  |
| CC(=O)OCC1(C)C2C[C@H](OC(=O)CCCCO)[C@@]3(C)Oc4cc(-c5cccnc5)oc(=O)c4[C@H](O)C3[C@@]2(C)CC[C@@H]1OC(C)=O (stereo partly drawn) [PRD 093, 7-O-5-hydroxypentanoyl-7-deacetylpyripyropene A] | 100 to 1000 nM | + (5 > specific activity > 1) |  |  |  |
| CC12COC(c3ccccc3)O[C@H]1CC[C@@]1(C)C2C[C@H](OC(=O)c2ccc([N+](=O)[O-])cc2)[C@@]2(C)Oc3cc(-c4cccnc4)oc(=O)c3[C@H](O)C12 (stereo partly drawn) [PRD 045, 1,11-O-benzylidene-7-O-p-nitrobenzoyl-1,7,11-trideacetylpyripyropene A] | 10 to 100 nM | ++ (10 > specific activity > 5) |  |  |  |
| CC(=O)OCC1(C)C2C[C@H](OC(=O)c3ccc(Br)c(F)c3)[C@@]3(C)Oc4cc(-c5cccnc5)oc(=O)c4[C@H](O)C3[C@@]2(C)CC[C@@H]1OC(C)=O (stereo partly drawn) [PRD 105, 7-O-p-bromo-m-fluorobenzoyl-7-deacetylpyripyropene A] | < 10 nM | +++ (50 > specific activity > 10) |  |  |  |
| CC12COC(c3ccccc3)O[C@H]1CC[C@@]1(C)C2C[C@H](OC(=O)c2ccccc2C#N)[C@@]2(C)Oc3cc(-c4cccnc4)oc(=O)c3[C@H](O)C12 (stereo partly drawn) [PRD 039, 1,11-O-benzylidene-7-O-o-cyanobenzoyl-1,7,11-trideacetylpyripyropene A] |  | +++ (50 > specific activity > 10) |  |  |  |
| CC12CO[Si](C(C)(C)C)(C(C)(C)C)O[C@H]1CC[C@@]1(C)C2C[C@H](OC(=O)c2ccc(C#N)cc2)[C@@]2(C)Oc3cc(-c4cccnc4)oc(=O)c3[C@H](O)C12 (stereo partly drawn) [PRD 059, 7-O-p-cyanobenzoyl-1,11-O-(di-tert-butylsilylene)-1,7,11-trideacetylpyripyropene A] | 100 to 1000 nM | + (5 > specific activity > 1) |  |  |  |
| COCCOCO[C@H]1CC2C(C)(COC(C)=O)[C@@H](OC(C)=O)CC[C@]2(C)C2[C@@H](O)c3c(cc(-c4cccnc4)oc3=O)O[C@@]21C (stereo partly drawn) [PRD 055, 7-deacetyl-7-O-methoxyethoxymethylpyripyropene A] | 10 to 100 nM | +++ (50 > specific activity > 10) |  |  |  |
| CC(=O)OCC1(C)C2C[C@H](OC(=O)c3ccc(C#N)c(F)c3)[C@@]3(C)Oc4cc(-c5cccnc5)oc(=O)c4[C@H](O)C3[C@@]2(C)CC[C@@H]1OC(C)=O (stereo partly drawn) [PRD 112, 7-O-p-cyano-m-fluorobenzoyl-7-deacetylpyripyropene A] |  | +++ (50 > specific activity > 10) |  |  |  |
| 7-O-o,m,p-trifluorobenzoyl-7-deacetylpyripyropene A [PRD 110] |  | +++ (50 > specific activity > 10) |  | < 10 nM |  |
| CC(=O)OCC1(C)C2C[C@H](OC(=O)c3ccc4c(c3)OC(F)(F)O4)[C@@]3(C)Oc4cc(-c5cccnc5)oc(=O)c4[C@H](O)C3[C@@]2(C)CC[C@@H]1OC(C)=O (stereo partly drawn) [PRD 036, 7-2,2-difluorobenzo[d][1,3]dioxol-5-carboxyl-7-deacetylpyripyropene A] | 10 to 100 nM | ++ (10 > specific activity > 5) |  |  |  |
| CC12COC(c3ccccc3)O[C@H]1CC[C@@]1(C)C2C[C@H](OC(=O)c2ccc(C=O)cc2)[C@@]2(C)Oc3cc(-c4cccnc4)oc(=O)c3[C@H](O)C12 (stereo partly drawn) [PRD 054, 1,11-O-benzylidene-7-O-p-formylbenzoyl-1,7,11-trideacetylpyripyropene A] | 10 to 100 nM | + (5 > specific activity > 1) |  |  |  |
| CC12CO[Si](C(C)(C)C)(C(C)(C)C)O[C@H]1CC[C@@]1(C)C2C[C@H](OC(=O)c2ccc(C#N)cc2)[C@@]2(C)Oc3cc(-c4cccnc4)oc(=O)c3[C@H](OC(=O)c3ccc(C#N)cc3)C12 (stereo partly drawn) [PRD 060, 7,13-di-(O-p-cyanobenzoyl)-1,11-O-(di-tert-butylsilylene)-1,7,11-trideacetylpyripyropene A] | 100 to 1000 nM | + (5 > specific activity > 1) |  |  |  |
| CC(=O)OCC1(C)C2C=C[C@@]3(C)Oc4cc(-c5cccnc5)oc(=O)c4[C@H](O)C3[C@@]2(C)CC[C@@H]1OC(C)=O (stereo partly drawn) [PRD 061, 7,8-olefinpyripyropene A] |  | + (5 > specific activity > 1) |  |  | 100 to 1000 nM |
| CC(=O)OCC1(C)C2C[C@H](OC(=O)CO)[C@@]3(C)Oc4cc(-c5cccnc5)oc(=O)c4[C@H](O)C3[C@@]2(C)CC[C@@H]1OC(C)=O (stereo partly drawn) [PRD 107, 7-O-hydroxyacetyl-7-deacetylpyripyropene A] | 100 to 1000 nM | + (5 > specific activity > 1) |  |  |  |
| CC12COC(c3ccccc3)O[C@H]1CC[C@@]1(C)C2C[C@H](OC(=O)c2cccc(C#N)c2)[C@@]2(C)Oc3cc(-c4cccnc4)oc(=O)c3[C@H](O)C12 (stereo partly drawn) [PRD 040, 1,11-O-benzylidene-7-O-m-cyanobenzoyl-1,7,11-trideacetylpyripyropene A] | 10 to 100 nM | +++ (50 > specific activity > 10) |  |  |  |

Further lines, with some results ahead:

| IC50 [1] | Specific activity: (inhibitory activity of test compound)/(inhibitory activity of pyripyropene A) (relative to pyripyropene A) | Specific activity relative to pyripyropene A (numeric) (relative to pyripyropene A) | Molecule | IC50 (read-out: Inhibitory activity: Concentration required for 50% inhibition of ACAT 2, mouse liver microsome, 5 minutes at 37° C.) | IC50 |
| --- | --- | --- | --- | --- | --- |
| 10 to 100 nM | + (5 > specific activity > 1) |  | CSc1ccc(C(=O)O[C@H]2CC3C(C)(COC(C)=O)[C@@H](OC(C)=O)CC[C@]3(C)C3[C@@H](O)c4c(cc(-c5cccnc5)oc4=O)O[C@@]32C)cc1 (stereo partly drawn) [PRD 018, 7-p-methylthiobenzoyl-7-deacetylpyripyropene A] |  |  |
| 10 to 100 nM | +++ (50 > specific activity > 10) |  | CC(=O)OCC1(C)C2C[C@H](OC(=O)c3cccc(Cl)c3)[C@@]3(C)Oc4cc(-c5cccnc5)oc(=O)c4[C@H](O)C3[C@@]2(C)CC[C@@H]1OC(C)=O (stereo partly drawn) [PRD 011, 7-m-chlorobenzoyl-7-deacetylpyripyropene A] |  |  |
| < 10 nM | +++++ (specific activity > 100) | ≥ 100 | CC(=O)OCC1(C)C2C[C@H](OC(=O)c3cccc(F)c3)[C@@]3(C)Oc4cc(-c5cccnc5)oc(=O)c4[C@H](O)C3[C@@]2(C)CC[C@@H]1OC(C)=O (stereo partly drawn) [PRD 024, 7-m-fluorobenzoyl-7-deacetylpyripyropene A] |  |  |
| < 10 nM | +++ (50 > specific activity > 10) |  | CC(=O)OCC1(C)C2C[C@H](OC(=O)c3ccc(F)cc3)[C@@]3(C)Oc4cc(-c5cccnc5)oc(=O)c4[C@H](O)C3[C@@]2(C)CC[C@@H]1OC(C)=O (stereo partly drawn) [PRD 020, 7-p-fluorobenzoyl-7-deacetylpyripyropene A] |  |  |
| 10 to 100 nM | +++ (50 > specific activity > 10) |  | COc1cccc(C(=O)O[C@H]2CC3C(C)(COC(C)=O)[C@@H](OC(C)=O)CC[C@]3(C)C3[C@@H](O)c4c(cc(-c5cccnc5)oc4=O)O[C@@]32C)c1 (stereo partly drawn) [PRD 002, 7-m-methoxybenzoyl-7-deacetylpyripyropene A] |  |  |
|  | +++ (50 > specific activity > 10) |  | CC(=O)OCC1(C)C2C[C@H](OC(=O)c3cccc(C)c3)[C@@]3(C)Oc4cc(-c5cccnc5)oc(=O)c4[C@H](O)C3[C@@]2(C)CC[C@@H]1OC(C)=O (stereo partly drawn) [PRD 008, 7-m-methylbenzoyl-7-deacetylpyripyropene A] |  |  |
|  | ++++ (100 > specific activity > 50) |  | CCc1ccc(C(=O)O[C@H]2CC3C(C)(COC(C)=O)[C@@H](OC(C)=O)CC[C@]3(C)C3[C@@H](O)c4c(cc(-c5cccnc5)oc4=O)O[C@@]32C)cc1 (stereo partly drawn) [PRD 025, 7-p-ethylbenzoyl-7-deacetylpyripyropene A] |  |  |
| 100 to 1000 nM | + (5 > specific activity > 1) |  | CC(=O)OCC1(C)C2C[C@H](OC(=O)c3ccc(O)cc3)[C@@]3(C)Oc4cc(-c5cccnc5)oc(=O)c4[C@H](O)C3[C@@]2(C)CC[C@@H]1OC(C)=O (stereo partly drawn) [PRD 031, 7-p-hydroxybenzoyl-7-deacetylpyripyropene A] |  |  |
